Values joined by “and” are separate entries in the source; they are usually repeats but may differ in a detail not shown here. Equal values may be shown once. “Also recorded” adds a separate entry of the source.
Columns and labels:
E. coli TY1 (DGL430) = experiment: Toxicity testing of organic solvents toward E. coli using agar cultures; assay type: cell-based; details: for % CFU 1 Sample 2 / % CFU Sample 1 / % CFU Sample 3: 5 mL solvent on inoculated LB agar plate, 30° C., CFU as percentage of control plates; for toxicity to E. coli in words: agar plate study
Procedure: This study was done using E. coli TY1 (DGL430), as described in Example 1. A stock culture of this strain was prepared in 50% glycerol and stored at −20° C. This stock culture (10 μL) was used to inoculate a 14 mL Falcon™ tube (BD Biosciences, Bedford, Mass.) containing 5 mL of LB medium, consisting of Bacto-tryptone (10 g/L), Bacto-yeast extract (5 g/L), and NaCL (10 g/L) adjusted to pH 7.5 with NaOH, and supplemented with tetracycline (10 μg/mL). This culture was incubated at 34° C. and 250 rpm overnight in an incubator shaker until an OD600 of between 1.0 and 2.0 was obtained. Dilutions of this culture were spread onto LB agar plates. The appropriate dilution was determined by experimentation to obtain between 100 to 200 colonies per plate. The solvents (5 mL) were filtered through a 0.2 μm filter onto the inoculated agar plates. All the solvents were tested in triplicate.
The plates were incubated overnight at 30° C. in a vented incubator located in a chemical fume hood. The colonies formed were counted after 24 and 48 h. The colony forming units (CFUs) obtained with each solvent were compared to those of the control plates and plotted in FIG. 1 as a percentage versus the log P value for the solvent (P values obtained from Hansch et al., Exploring QSAR: Hydrophobic, Electronic and Steric Constants, American Chemical Society, Washington, D.C., 1995). […] The error bars in the figure represent the range of the data. Cell growth on the agar medium was characterized by the presence of both distinct and non-distinct colony formations, which affected the precision of the colony counts. In the presence of some of the solvents tested, growth continued between 24 and 48 h, while with other solvents, no further growth was observed after 24 h.

[1] = P values obtained from Hansch et al. 1995; cited from earlier work
E. coli strain BNT511 = experiment: Effect of organic solvents on the growth of E. coli, shake flasks; assay type: cell-based; details: for OD 550: 10 mL solvent in 30 mL medium
Excerpt: E. coli strain BNT511 was used in this study. This strain is a tyrosine overproducing strain derived from E. coli strain NST 74 (ATCC No. 31884), which was obtained from the American Type Culture Collection (ATCC) (Manassas, Va.). Strain BNT511 is deposited with the American Type Culture Collection under the terms of the Budapest Treaty on the International Recognition of the Deposit of Microorganisms for the Purposes of Patent Procedure and has been assigned a depository designation of PTA-4314. E. coli strain BNT511 was obtained as follows. A culture of E. coli strain NST 74 was grown overnight at 37° C. in three milliliters of M9 medium, prepared as follows. A solution of M9 salts buffer consisting of KH2PO4 (3 g/L), Na2HPO4 (6 g/L), NaCl (0.5 g/L), and NH4Cl (1 g/L), was prepared and the pH was adjusted to 7.4. This M9 salts buffer was autoclaved and then the following solutions, each sterilized separately by filtration (glucose) or autoclaving, were added to give the concentrations given in parentheses MgSO4 (0.24 g/L), glucose (0.2%), CaCl2 (0.011 g/L), and yeast extract (1 g/L). After growth, the culture was diluted by a factor of 10^3 to 10^6 in M9 salts buffer. Then, 100 μL of each dilution was plated on M9+1% glucose agar containing […] of 3-fluorotyrosine and the plates were incubated at 37° C. After 18 h, growth was observed only on the plate not containing 3-fluorotyrosine. Plates containing 3-fluorotyrosine were incubated an additional 24 h, after which time, several isolates were identified. One NST 74-derived isolate was obtained from each of the 150 and 450 mg/mL 3-fluorotyrosine plates. Individual isolates were propagated on M9+1% glucose agar containing 0, 50, 150, or 250 mg/mL 3-fluorotyrosine. One of these two isolates was designated as BNT511.
E. coli strain BNT511 was grown in a medium containing KH2PO4 (0.15 g/L), Na2HPO4 (0.35 g/L), (NH4)2 SO4 (3 g/L), MgSO4.7H2O (0.3 g/L), yeast extract (0.5 g/L), MOPS (15.6 g/L), and glucose (10 g/L), adjusted to pH 6.8. A seed culture, taken from an active culture that grew in a fermentor and was diluted to 0.3 OD at 550 nm, was used to inoculate 30 mL of culture medium in 250 mL baffled flasks. Ten milliliters of the solvent to be tested, either 1-undecanol (98%, obtained from Aldrich) or 2-undecanone (98%, obtained from Aldrich), was added to the flask and the flasks were incubated at 35° C. and 300 rpm for 22 h in an incubator shaker. A flask without an organic solvent added served as the control. This experiment was run in duplicate. Samples of the aqueous culture media were removed at various times and the pH and the OD550 were measured. As shown by the results given in Table 2, the presence of the organic solvents tested had no significant effect on the growth of E. coli. However, the results obtained with 2-undecanone in these studies were not consistent. […] We believe that this variability was caused by variations in the purity of this solvent.

[2] = Extraction of CA into organic phase, two-phase flask fermentation; assay type: physicochemical
Procedure: The strain used in this study was E. coli WWQ51.1, as described in Example 3. The conditions were similar to those described in Example 3. Eight test cultures were inoculated; six contained 20 mL of 2-undecanone, the other two contained 20 mL of 1-undecanol. A 10% w/v solution of pHS in propylene glycol (0.5 mL), obtained from Sigma-Aldrich, Milwaukee, Wis., was added to two of the cultures containing 2-undecanone, as specified in Table 7.
The cultures were incubated in 250 mL baffled flasks at 35° C. and 300 rpm for 24 h in an incubator shaker. After this time, a sample of the aqueous phase was withdrawn and the pH, OD550, and the concentration of the fermentation products were measured, as described supra. The organic phase was also sampled and the concentration of CA and pHS were determined using HPLC, as described supra.
In this study, the pH decreased to low values and a significant amount of CA was extracted into both organic solvents tested. The amount of pHS produced was low, probably because of its poor stability at low pH. As shown by the data in Table 9, the amount of CA extracted into the organic phase was very dependent on the pH of the medium. This pH dependence results because the fully protonated species is the form extracted into the organic phase. The ionized acid form is very water-soluble and is not extracted into the organic phase. Therefore, the extractive fermentation of acidic compounds such as CA and pHCA is favored at low pH, where the acid exists primarily in the unionized form.

[3] = 2 h, 35° C., 300 rpm, duplicate flasks

Row | SMILES | % CFU 1 Sample 2 (E. coli TY1 (DGL430)) [%] | % CFU Sample 1 (E. coli TY1 (DGL430)) [%] | % CFU Sample 3 (E. coli TY1 (DGL430)) [%] | Log P [1] | toxicity to E. coli in words (E. coli TY1 (DGL430)) | further results
1 | CC(C)CCOCCC(C)C [Diisopentyl ether] | 39 | 13 | 0 | 3.96 | – | –
2 | CCCCCCCCCCCC(C)=O [2-Tridecanone] | 115 | 100 | 87 | 4.95 | relatively nontoxic to E. coli | –
3 | CCCCCCCCCCCO [1-undecanol] | – | – | – | – | – | OD 550 (E. coli strain BNT511; [3]): 1.428 and 1.456; OD 550 (E. coli strain BNT511; 4.2 h): 1.96 and 2.14; OD 550 (E. coli strain BNT511; 6 h): 6.02 and 6.7; OD 550 (E. coli strain BNT511; 22 h): 19.1 and 15.7
4 | CCCCC(=O)c1ccccc1 [1-Phenyl-1-pentanone] | 62 | 33 | 0 | 3.33 | – | –
5 | CCCOC(=O)c1ccccc1 [Propyl benzoate] | 26 | 9 | 0.9 | – | – | –
6 | CCCCCCCCC(C)=O [2-Decanone] | 0 | 0 | 0 | 3.39 | – | –
7 | O=C(O)C=Cc1ccccc1 [CA, cinnamic acid] | – | – | – | – | – | CA Org/CA Aq ([2]; Flask 1, 2-undecanone 20 mL/flask, pH 5.38, 24 h): 3.55; CA Org/CA Aq ([2]; Flask 2, 2-undecanone, pH 4.5): 17.00; CA Org/CA Aq ([2]; Flask 3, 2-undecanone, pH 5.5): 1.43; CA Org/CA Aq ([2]; Flask 4, 2-undecanone, pH 5.4): 2.54; CA Org/CA Aq ([2]; Flask 5, 2-undecanone, pH 4.8): 8.08; CA Org/CA Aq ([2]; Flask 6, 2-undecanone, pH 5.7): 1.10; CA Org/CA Aq ([2]; Flask 7, 1-undecanol, pH 5.7): 2.10; CA Org/CA Aq ([2]; Flask 8, 1-undecanol, pH 5.71): 2.15
8 | c1ccc(COCc2ccccc2)cc1 [Dibenzyl ether] | 5 | 1.5 | 0 | 3.1 | – | –
9 | CCCCCCCCCC(=O)OC [Methyl decanoate] | 109 | 73 | 44 | 4.41 | relatively nontoxic to E. coli | –
10 | CCCCCCCCCC(C)=O [2-undecanone] | 11 | 11 | 11 | 3.91 | significantly inhibit growth | growth inhibition / toxicity to E. coli of some lots (E. coli strain BNT511; 2-undecanone from some suppliers and lots, ascribed to impurities): found to inhibit growth; also recorded: toxic to E. coli due to impurities; OD 550 (E. coli strain BNT511; [3]): 1.004; OD 550 (E. coli strain BNT511; 4.2 h): 1.88; OD 550 (E. coli strain BNT511; 6 h): 6.3 and 6.28; OD 550 (E. coli strain BNT511; 22 h): 15.2 and 12.3
